Laboratory results as given in publication PMC11243149, “Assessing the Effects of Thiazole-Carboxamide Derivatives on the Biophysical Properties of AMPA Receptor Complexes as a Potential Neuroprotective Agent” (Molecules, 2024).
Where two headings read alike, the source gives them in different places.

Columns and labels:
Assay type in all cases: cell-based
GluA1 = molecular target: T1, GluA1 (Homo sapiens, UniProt P42261); test: Whole-cell patch-clamp recordings of homomeric GluA1 AMPAR in transfected HEK293T cells; details: GluA1; for Amplitude (glutamate plus TC compound): 10 mM glutamate + TC compound (12 µM optimal concentration), HEK293T, -60 mV, pH 7.4, 22 °C, mean ± SEM; for t deact: weighted tau of deactivation, 10 mM glutamate for 1 ms, glutamate alone 2.1±0.1; for t deact / t des: with TC compound; for t des: weighted tau of desensitization, 10 mM glutamate 500 ms, glutamate alone 2.5±0.1
T1 construct: expressed in transfected cells; host or cells: HEK293T
T1 sequence (P42261 19-906 isoform P42261-2 limits assumed, species assumed): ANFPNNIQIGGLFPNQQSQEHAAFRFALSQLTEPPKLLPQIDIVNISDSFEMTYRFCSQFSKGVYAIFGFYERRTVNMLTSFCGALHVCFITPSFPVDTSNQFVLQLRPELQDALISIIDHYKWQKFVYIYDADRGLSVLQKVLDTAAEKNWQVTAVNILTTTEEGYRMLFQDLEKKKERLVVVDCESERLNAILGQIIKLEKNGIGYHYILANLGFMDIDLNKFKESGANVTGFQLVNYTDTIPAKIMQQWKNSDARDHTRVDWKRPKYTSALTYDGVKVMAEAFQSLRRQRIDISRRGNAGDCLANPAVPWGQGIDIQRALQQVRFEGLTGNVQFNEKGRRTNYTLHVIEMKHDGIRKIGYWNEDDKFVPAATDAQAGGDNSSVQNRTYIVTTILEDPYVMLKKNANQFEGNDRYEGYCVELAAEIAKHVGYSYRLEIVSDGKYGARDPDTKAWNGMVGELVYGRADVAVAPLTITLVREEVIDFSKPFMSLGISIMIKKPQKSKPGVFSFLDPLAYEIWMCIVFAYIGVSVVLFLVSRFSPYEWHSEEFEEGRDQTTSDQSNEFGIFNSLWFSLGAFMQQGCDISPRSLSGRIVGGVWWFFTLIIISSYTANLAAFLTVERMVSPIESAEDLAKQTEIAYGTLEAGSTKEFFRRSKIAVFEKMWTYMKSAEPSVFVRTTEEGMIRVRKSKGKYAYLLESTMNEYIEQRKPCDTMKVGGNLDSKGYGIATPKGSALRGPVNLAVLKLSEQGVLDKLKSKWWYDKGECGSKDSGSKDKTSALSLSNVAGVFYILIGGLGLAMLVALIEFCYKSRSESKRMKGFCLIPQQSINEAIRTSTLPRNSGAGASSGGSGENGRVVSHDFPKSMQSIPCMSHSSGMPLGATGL
Method: (§1) The effect of five TC compounds on whole-cell currents of four AMPAR subunits (GluA1, GluA1/2, GluA2, and GluA2/3) was investigated using transfected HEK293T cells. Each compound was applied separately to each subunit, with experiments conducted on 8–10 cells per condition to ensure reproducibility. […] At a glutamate concentration of 10 mM and a 500 ms protocol, approximately 95% of AMPAR channels were open. The A/AI ratio was calculated to compare the results, where A represents normalized current readings and AI indicates the inhibited current following TC compound exposure. […] Following closely, TC-1 inhibited the tested subunits by 5-fold.
(§2) The IC50 values were examined using GraphPad Prism software 9.5.0.730 (x64) (Table S6), which confirmed these findings. The IC50 values of TC substances were calculated by standardizing the peak current amplitudes using data obtained from 8–10 cells. Following a 500 ms exposure to the compounds, the cells were rinsed with glutamate for 20 s. Next, a solution containing just glutamate at a concentration of 10 mM was administered, and the resulting immediate induced electrical current was measured and documented (Figure 3).
(§3) In addition, an evaluation was conducted on the deactivation rates (τw deact) of all the examined chemicals to investigate their impact on the kinetics of deactivation. The chemicals were assessed for their effect on the deactivation kinetics of AMPAR subunits by briefly administering 10 mM glutamate for 1 ms to begin currents. This experimental setup allowed for the observation of τw deact under controlled conditions. […] TC-5 induced an approximately 2-fold increase in τw deact across all four tested subunits. […] These findings highlight the differential impact of TC compounds on deactivation kinetics across AMPAR subunits, shedding light on their potential neuroprotective mechanisms.
(§4) The flip isoform was uniformly employed across all AMPAR subunits in this study. These subunits were subcloned into the pRK vector and expressed in Human Embryonic kidney cells sourced (Sigma, München, Germany). HEK293T cells were grown in Dulbecco Modified Eagle Medium (DMEM) (Sigma, München, Germany) containing 10% FBS (fetal bovine serum), 0.1 mg/mL streptomycin, and 1 mM sodium pyruvate (Biological Industries; Beit-Haemek, Israel). HEK293T cells were incubated at 37 °C and 5% CO2 was supplemented to the medium. It was subcultured twice a week until cells reached pass #20. The transfection reagent used was either jetPRIME (Polyplus: New York, NY, USA) or Lipofectamine 2000 (Invitrogen; San Diego, CA, USA). Cells were kept for 36 h. after transfection in 12-well plates. Then, they were replated on coverslips coated with Laminin (1 mg/mL; Sigma, Germany) for electrophysiology recordings. Cells were then seeded in Petri dishes in DMEM supplemented with 10% fetal calf serum and antibiotics and maintained in a humidified incubator at 37 °C and 5% CO2. Highly fluorescent cells were identified and selected for recording post-transfection.
(§5) HEK293T cells were recorded for 36–48 h, at a temperature of 22 °C, with a membrane potential of −60 mV. HEK293T cells were recorded 36–48 h after transfection using IPA (Integrated Patch Amplifier) via the […], at a temperature of 22 °C, with a membrane potential of −60 mV. SutterPatch Software v. 1.1.1 (Sutter Instruments, Novato, CA, USA) was used to digitize membrane currents for a short period. The sampling frequency was set to 10 kHz, and the low-pass filter was set to 2 kHz. Borosilicate glass was used to fabricate the patch electrodes with a resistance of 2–4 MΩ. The extracellular solution contained the following (values are in mM): 150 NaCl, 2.8 KCl, 0.5 MgCl2, 2 CaCl2, and 10 HEPES, adjusted to pH 7.4 with NaOH. The pipette solution contained the following (values are in mM): 110 CsF, 30 CsCl, 4 NaCl, 0.5 CaCl2, 10 […], and 10 HEPES, adjusted to pH 7.2 with CsOH. […]

GluA1/2 = molecular target: T2, GluA1/2 (Homo sapiens, UniProt P42261+P42262); test: Whole-cell patch-clamp recordings of heteromeric GluA1/2 AMPAR in transfected HEK293T cells; details: for Amplitude (glutamate plus TC compound): 10 mM glutamate + TC compound (12 µM optimal concentration), HEK293T, -60 mV, pH 7.4, 22 °C, mean ± SEM; for Amplitude (glutamate plus TC compound) / Amplitude, applying glutamate alone after TC compound: n = 10; for Amplitude, applying glutamate alone after TC compound: 10 mM glutamate alone after 20 s wash following the TC compound; for A/AI: ratio of current with glutamate alone (A) to inhibited current after TC compound (AI); for t deact: weighted tau of deactivation, 10 mM glutamate for 1 ms, glutamate alone 2.5±0.3; for t deact / t des: with TC compound; for t des: weighted tau of desensitization, 10 mM glutamate 500 ms, glutamate alone 5.2±0.5
T2 construct: expressed in transfected cells; host or cells: HEK293T
T2 sequence (P42261 19-906 isoform P42261-2 limits assumed): as the sequence (P42261 19-906 isoform P42261-2 limits assumed, species assumed) above
T2 sequence (P42262 25-883 isoform P42262-2 limits assumed): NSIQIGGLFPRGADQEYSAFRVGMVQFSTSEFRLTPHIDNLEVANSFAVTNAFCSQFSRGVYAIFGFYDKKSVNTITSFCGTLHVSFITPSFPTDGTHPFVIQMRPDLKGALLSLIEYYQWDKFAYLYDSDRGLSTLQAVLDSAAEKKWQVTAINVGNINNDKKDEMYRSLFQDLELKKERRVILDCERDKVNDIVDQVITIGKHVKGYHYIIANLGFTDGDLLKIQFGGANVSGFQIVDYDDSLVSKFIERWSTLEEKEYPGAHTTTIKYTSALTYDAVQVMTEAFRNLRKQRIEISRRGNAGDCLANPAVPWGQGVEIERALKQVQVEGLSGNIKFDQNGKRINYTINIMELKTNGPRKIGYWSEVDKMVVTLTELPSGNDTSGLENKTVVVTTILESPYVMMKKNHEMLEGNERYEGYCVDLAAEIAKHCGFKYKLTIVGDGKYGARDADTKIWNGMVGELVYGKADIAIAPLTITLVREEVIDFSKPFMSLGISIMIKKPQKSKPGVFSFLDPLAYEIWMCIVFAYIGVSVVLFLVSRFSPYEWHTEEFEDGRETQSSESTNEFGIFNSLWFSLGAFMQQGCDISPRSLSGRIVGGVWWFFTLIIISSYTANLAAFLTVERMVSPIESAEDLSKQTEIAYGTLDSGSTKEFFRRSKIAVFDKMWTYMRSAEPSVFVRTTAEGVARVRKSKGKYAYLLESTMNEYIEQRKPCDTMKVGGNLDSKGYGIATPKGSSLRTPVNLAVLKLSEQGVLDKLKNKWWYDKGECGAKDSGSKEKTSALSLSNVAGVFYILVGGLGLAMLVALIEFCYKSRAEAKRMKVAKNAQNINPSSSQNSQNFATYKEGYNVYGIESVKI
Method: as §1, §2, §3, §4, §5

GluA2 = molecular target: T3, GluA2 (Homo sapiens, UniProt P42262); test: Whole-cell patch-clamp recordings of homomeric GluA2 AMPAR in transfected HEK293T cells; details: for Amplitude (glutamate plus TC compound): 10 mM glutamate + TC compound (12 µM optimal concentration), HEK293T, -60 mV, pH 7.4, 22 °C, mean ± SEM; for Amplitude (glutamate plus TC compound) / Amplitude, applying glutamate alone after TC compound: n = 10; for Amplitude, applying glutamate alone after TC compound: 10 mM glutamate alone after 20 s wash following the TC compound; for t deact: weighted tau of deactivation, 10 mM glutamate for 1 ms, glutamate alone 2.3±0.1; for t deact / t des: with TC compound; for t des: weighted tau of desensitization, 10 mM glutamate 500 ms, glutamate alone 2.6±0.1
T3 construct: expressed in transfected cells; host or cells: HEK293T
T3 sequence (P42262 25-883 isoform P42262-2 limits assumed, species assumed): as the sequence (P42262 25-883 isoform P42262-2 limits assumed) above
Method: as §1, §2, §3, §4, §5

GluA2/3 = molecular target: T4, GluA2/3 (Homo sapiens, UniProt P42262+P42263); test: Whole-cell patch-clamp recordings of heteromeric GluA2/3 AMPAR in transfected HEK293T cells; details: for Amplitude (glutamate plus TC compound): 10 mM glutamate + TC compound (12 µM optimal concentration), HEK293T, -60 mV, pH 7.4, 22 °C, mean ± SEM; for Amplitude (glutamate plus TC compound) / Amplitude, applying glutamate alone after TC compound: n = 10; for Amplitude, applying glutamate alone after TC compound: 10 mM glutamate alone after 20 s wash following the TC compound; for A/AI: ratio of current with glutamate alone (A) to inhibited current after TC compound (AI); for t deact: weighted tau of deactivation, 10 mM glutamate for 1 ms, glutamate alone 2.6±0.3; for t deact / t des: with TC compound; for t des: weighted tau of desensitization, 10 mM glutamate 500 ms, glutamate alone 2.7±0.2
T4 construct: expressed in transfected cells; host or cells: HEK293T
T4 sequence (P42262 25-883 isoform P42262-2 limits assumed): as above
T4 sequence (P42263 29-894 isoform P42263-2 limits assumed): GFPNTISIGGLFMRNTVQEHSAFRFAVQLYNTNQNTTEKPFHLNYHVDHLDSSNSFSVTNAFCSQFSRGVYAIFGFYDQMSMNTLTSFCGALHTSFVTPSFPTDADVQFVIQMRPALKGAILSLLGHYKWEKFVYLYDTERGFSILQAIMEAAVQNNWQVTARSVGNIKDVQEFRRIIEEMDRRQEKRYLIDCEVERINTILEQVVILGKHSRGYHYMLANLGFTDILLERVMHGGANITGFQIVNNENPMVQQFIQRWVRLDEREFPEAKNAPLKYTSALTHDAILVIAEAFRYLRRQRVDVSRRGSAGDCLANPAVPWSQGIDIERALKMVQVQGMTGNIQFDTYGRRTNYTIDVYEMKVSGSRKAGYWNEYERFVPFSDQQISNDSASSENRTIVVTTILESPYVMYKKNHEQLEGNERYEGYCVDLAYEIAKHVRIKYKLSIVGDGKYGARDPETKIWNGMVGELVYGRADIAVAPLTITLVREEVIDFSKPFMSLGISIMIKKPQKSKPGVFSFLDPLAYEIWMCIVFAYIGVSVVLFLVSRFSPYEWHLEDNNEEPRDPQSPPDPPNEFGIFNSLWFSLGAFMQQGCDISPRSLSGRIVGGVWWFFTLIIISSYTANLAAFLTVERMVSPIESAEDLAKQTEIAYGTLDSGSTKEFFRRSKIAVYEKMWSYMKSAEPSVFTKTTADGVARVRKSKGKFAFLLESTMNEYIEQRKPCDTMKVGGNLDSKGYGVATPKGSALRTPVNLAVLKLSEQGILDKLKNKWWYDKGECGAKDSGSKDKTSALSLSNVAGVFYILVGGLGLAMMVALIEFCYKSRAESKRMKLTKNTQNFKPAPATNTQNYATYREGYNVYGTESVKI
Method: as §1, §2, §3, §4, §5

[1] = system: AMPAR subunits (GluA1, GluA1/2, GluA2, and GluA2/3); test: Whole-cell patch-clamp recordings, statements over all tested AMPAR subunits; details: for reduction in τw des: across all examined subunits; for increase in τw deact / decrease in AMPAR subunit activity (inhibition of the whole-cell current): all tested subunits; for increase in τw deact: 10 mM glutamate for 1 ms; for decrease in AMPAR subunit activity (inhibition of the whole-cell current): 10 mM glutamate, 500 ms protocol
Method: as §1
A thorough investigation was performed to assess the neuroprotective potential of the TC compounds. The influence of the five TC compounds on the desensitization traces is seen in Figure 4, namely in panels b, d, f, and h. TC-2 caused a substantial reduction in τw des in all receptor subunits, with decreases ranging from 2 to 3 times.
as §3, §4
as §5, with “CsOH. Using double barrel glass (theta tube), glutamate and the solutions of choice were rapidly administered, and the theta tube was mounted on a high-speed piezo solution switcher (Automate Scientific, Berkeley, CA, USA).” for “CsOH.”

[2] = Table S6, read-out: Log IC50 (converted)
[3] = ratio of current with glutamate alone (A) to inhibited current after TC compound (AI)
[4] = Table S6, peak current amplitudes, 8-10 cells, GraphPad Prism fit, read-out: IC50

Compound	Amplitude (glutamate plus TC compound) (GluA1; n = 10) [pA]	IC50 (GluA1; [2]) [µM]	t deact (GluA1) [ms]	t des (GluA1) [ms]	Amplitude (glutamate plus TC compound) (GluA1/2) [pA]	Amplitude, applying glutamate alone after TC compound (GluA1/2) [pA]	IC50 (GluA1/2; [2]) [µM]	A/AI (GluA1/2)	t deact (GluA1/2) [ms]	t des (GluA1/2) [ms]	Amplitude (glutamate plus TC compound) (GluA2) [pA]	Amplitude, applying glutamate alone after TC compound (GluA2) [pA]	IC50 (GluA2; [2]) [µM]	IC50 (GluA2; read-out: IC50) [µM]	t deact (GluA2) [ms]	t des (GluA2) [ms]	Amplitude (glutamate plus TC compound) (GluA2/3) [pA]	Amplitude, applying glutamate alone after TC compound (GluA2/3) [pA]	IC50 (GluA2/3; [2]) [µM]	A/AI (GluA2/3)	other results
COc1ccc(-c2nc(C(=O)Nc3cc(OC)c(OC)c(OC)c3)cs2)cc1 [TC-2]	172±18	3.24	5.6 ± 0.3	1.1 ± 0.1	115±12	597±66	3.09	5.38±0.08	6.0 ± 0.5	3.7 ± 0.3	212±20	1131±105	3.02	3.02	6.3 ± 0.2	0.9 ± 0.1	94±14	484±68	3.02	5.33±0.23	Amplitude, applying glutamate alone after TC compound (GluA1; 10 mM glutamate alone after 20 s wash following the TC compound, n = 10): 841±88 pA; IC50 (GluA1; read-out: IC50): 3.2 µM; IC50 (GluA1/2; read-out: IC50): 3.1 µM; A/AI (GluA2; [3]): 5.49±0.05; IC50 (GluA2/3; read-out: IC50): 3.04 µM; t deact (GluA2/3): 5.9 ± 0.4 ms; t des (GluA2/3): 1.0 ± 0.2 ms; reduction in τw des [1]: 2 to 3 fold; increase in τw deact [1]: ~2.5 fold; decrease in AMPAR subunit activity (inhibition of the whole-cell current) [1]: ~5.5 fold
COc1ccc(-c2nc(C(=O)Nc3cc(OC)ccc3OC)cs2)cc1 [TC-5]	177±33	3.55	5.5 ± 0.4	1.4 ± 0.1	123±20	553±89	3.47	4.80±0.07	5.6 ± 0.4	3.8 ± 0.3	250±35	1071±134	3.31	3.35	5.8 ± 0.3	1.2 ± 0.1	99±22	443±96	3.39	4.79±0.20	IC50 (GluA1; [4]): 3.51 µM; A/AI (GluA1; [3]): 4.67±0.10; IC50 (GluA1/2; [4]): 3.49 µM; IC50 (GluA2/3; [4]): 3.42 µM; t deact (GluA2/3): 5.7 ± 0.4 ms; t des (GluA2/3): 1.3 ± 0.2 ms; reduction in τw des [1]: roughly twofold; increase in τw deact [1]: around 2 fold; decrease in AMPAR subunit activity (inhibition of the whole-cell current) [1]: approximately 5 fold
